Experimental data as given in PubChem BioAssay (NCI).
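At the GI50, growth is halved. Definition used: TGI = concentration required for complete inhibition of growth.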

Legend:
Test in all cases: DTP human tumour cell line panel, 384-well format
OVCAR-5 ovarian = test system: OVCAR-5 ovarian
HOP-92 NSCLC = test system: HOP-92 NSCLC
KM12 colon = test system: KM12 colon
HOP-62 NSCLC = test system: HOP-62 NSCLC
SNB-19 CNS = test system: SNB-19 CNS
CAKI-1 renal = test system: CAKI-1 renal
ACHN renal = test system: ACHN renal
M14 melanoma = test system: M14 melanoma
A498 renal = test system: A498 renal
NCI-H522 lung = test system: NCI-H522 lung
NCI-H460 NSCLC = test system: NCI-H460 NSCLC
SK-MEL-2 melanoma = test system: SK-MEL-2 melanoma
MALME-3M melanoma = test system: MALME-3M melanoma
NCI-H322M lung = test system: NCI-H322M lung
HS 578T breast = test system: HS 578T breast
SNB-75 CNS = test system: SNB-75 CNS
SN12C renal = test system: SN12C renal
EKVX NSCLC = test system: EKVX NSCLC
T-47D breast = test system: T-47D breast
HCT-116 colon = test system: HCT-116 colon
OVCAR-8 ovarian = test system: OVCAR-8 ovarian
IGROV1 ovarian = test system: IGROV1 ovarian
SK-OV-3 ovarian = test system: SK-OV-3 ovarian
RXF 393 renal = test system: RXF 393 renal
HCT-15 colon = test system: HCT-15 colon
NCI-H226 lung = test system: NCI-H226 lung
786-0 renal = test system: 786-0 renal
HT29 colon = test system: HT29 colon
UO-31 renal = test system: UO-31 renal
SW-620 colon = test system: SW-620 colon
SF-295 CNS = test system: SF-295 CNS
OVCAR-3 ovarian = test system: OVCAR-3 ovarian
SR leukemia = test system: SR leukemia
COLO 205 colon = test system: COLO 205 colon
SK-MEL-5 melanoma = test system: SK-MEL-5 melanoma
SF-268 CNS = test system: SF-268 CNS
MDA-MB-468 breast = test system: MDA-MB-468 breast
PC-3 prostate = test system: PC-3 prostate
A549 NSCLC = test system: A549 NSCLC
OVCAR-4 ovarian = test system: OVCAR-4 ovarian
K-562 leukemia = test system: K-562 leukemia
HL-60(TB) leukemia = test system: HL-60(TB) leukemia
UACC-257 melanoma = test system: UACC-257 melanoma
TK-10 renal = test system: TK-10 renal
U251 glioblastoma = test system: U251 glioblastoma
MCF7 breast = test system: MCF7 breast
UACC-62 melanoma = test system: UACC-62 melanoma
MDA-MB-435 melanoma = test system: MDA-MB-435 melanoma
BT-549 breast = test system: BT-549 breast
DU-145 prostate = test system: DU-145 prostate
SF-539 CNS = test system: SF-539 CNS
MOLT-4 leukemia = test system: MOLT-4 leukemia
NCI-H23 lung = test system: NCI-H23 lung
MDA-MB-231 breast = test system: MDA-MB-231 breast
SK-MEL-28 melanoma = test system: SK-MEL-28 melanoma

## C=CC(=O)N1CCN([C@@H](CC2CC2)c2ccc([C@H](C)Nc3ncc4c(n3)N(CC)C(=O)OC4)cc2)CC1
OVCAR-5 ovarian
  GI50: 16.1 µM
  TGI: 30.4 µM
HOP-92 NSCLC
  GI50: 8.05 µM
  TGI: 20.7 µM
KM12 colon
  GI50: 15.1 µM
  TGI: 28.5 µM
HOP-62 NSCLC
  GI50: 10 µM
  TGI: 27.9 µM
SNB-19 CNS
  GI50: 17.2 µM
  TGI: 31.1 µM
CAKI-1 renal
  GI50: 11.4 µM
  TGI: 23.6 µM
ACHN renal
  GI50: 13.9 µM
  TGI: 26.8 µM
M14 melanoma
  GI50: 14.3 µM
  TGI: 27.3 µM
A498 renal
  GI50: 12 µM
  TGI: 24.4 µM
NCI-H522 lung
  GI50: 1.36 µM
  TGI: 4.12 µM
NCI-H460 NSCLC
  GI50: 5.15 µM
  TGI: 17 µM
SK-MEL-2 melanoma
  GI50: 10.3 µM
  TGI: 22 µM
MALME-3M melanoma
  GI50: 19 µM
  TGI: 33.1 µM
NCI-H322M lung
  GI50: 14 µM
  TGI: 27.3 µM
HS 578T breast
  GI50: 6.9 µM
  TGI: 19.6 µM
SNB-75 CNS
  GI50: 7.22 µM
  TGI: 20 µM
SN12C renal
  GI50: 16.2 µM
  TGI: 29.8 µM
EKVX NSCLC
  GI50: 16.4 µM
  TGI: > 100 µM
T-47D breast
  GI50: 13.9 µM
  TGI: 28 µM
HCT-116 colon
  GI50: 6.57 µM
  TGI: 19.7 µM
OVCAR-8 ovarian
  GI50: 12.7 µM
  TGI: 26.1 µM
IGROV1 ovarian
  GI50: 10.3 µM
  TGI: 22.1 µM
SK-OV-3 ovarian
  GI50: 17.9 µM
  TGI: 37.9 µM
RXF 393 renal
  GI50: 2.52 µM
  TGI: 12.5 µM
HCT-15 colon
  GI50: 12 µM
  TGI: 28.9 µM
NCI-H226 lung
  GI50: 15.9 µM
  TGI: 36.1 µM
786-0 renal
  GI50: 12.9 µM
  TGI: 25.7 µM
HT29 colon
  GI50: 14.8 µM
  TGI: 28 µM
UO-31 renal
  GI50: 13.9 µM
  TGI: 26.9 µM
SW-620 colon
  GI50: 13.5 µM
  TGI: 26.4 µM
SF-295 CNS
  GI50: 35.3 µM
  TGI: > 100 µM
OVCAR-3 ovarian
  GI50: 10.2 µM
  TGI: 21.8 µM
SR leukemia
  GI50: 2.94 µM
  TGI: 8.8 µM
COLO 205 colon
  GI50: 17.6 µM
  TGI: 31.5 µM
SK-MEL-5 melanoma
  GI50: 13.3 µM
  TGI: 30.1 µM
SF-268 CNS
  GI50: 14.4 µM
  TGI: 27.5 µM
MDA-MB-468 breast
  GI50: 2.82 µM
  TGI: 7.69 µM
PC-3 prostate
  GI50: 10.8 µM
  TGI: 22.7 µM
A549 NSCLC
  GI50: 25.3 µM
  TGI: > 100 µM
OVCAR-4 ovarian
  GI50: 13.3 µM
  TGI: 26.1 µM
K-562 leukemia
  GI50: 3.7 µM
  TGI: 16 µM
HL-60(TB) leukemia
  GI50: 1.82 µM
  TGI: 3.32 µM
UACC-257 melanoma
  GI50: 13.8 µM
  TGI: 26.8 µM
TK-10 renal
  GI50: 4.36 µM
  TGI: 16.6 µM
U251 glioblastoma
  GI50: 15.4 µM
  TGI: 33.4 µM
MCF7 breast
  GI50: 9.04 µM
  TGI: > 100 µM
UACC-62 melanoma
  GI50: 10.6 µM
  TGI: 22.4 µM
MDA-MB-435 melanoma
  GI50: 14.3 µM
  TGI: 27.4 µM
BT-549 breast
  GI50: 5.83 µM
  TGI: 18.6 µM
DU-145 prostate
  GI50: 12.7 µM
  TGI: 25.3 µM
SF-539 CNS
  GI50: 11.4 µM
  TGI: 23.5 µM
MOLT-4 leukemia
  GI50: 1.89 µM
  TGI: 3.43 µM
NCI-H23 lung
  GI50: 15.1 µM
  TGI: 61 µM
MDA-MB-231 breast
  GI50: 13.9 µM
  TGI: 26.8 µM
SK-MEL-28 melanoma
  GI50: 16.6 µM
  TGI: 30.2 µM
